The values that follow come from patent publication US7723537B2, “Skin lightening agents, compositions and methods” (Unilever Home & Personal Care USA, Division of Conopco, Inc., priority 2004, dated 2010).

Test [1] relates to B16 mouse melanoma cells. Description: Cell based assay: melanin synthesis in B16 mouse melanoma cells. The following applies: 6.25 micromolar, 72 hours, absorbency of medium at 530 nm, read-out: % of Control (Melanin Synthesis). How it is done: This experiment was carried out using a cell based assay.
B16 mouse melanoma cells were utilized in the following experiment to evaluate the efficacy of skin lightening agents. B16 cells were plated in 96-well microtiter plates at a density of 5000 cells per well and cultured overnight in Dulbecco's Modified Eagle's Medium (phenol red free) containing 10% fetal bovine serum and 1% penicillin/streptomycin at 37° C. in the presence of 5% CO2. After 24 hours, the medium was replaced with fresh growth medium containing the treatments. All cultures were incubated for 72 hours at which time melanin was visible in the control treatment. The melanin-containing medium was transferred to a clean 96-well plate and quantified by reading the absorbency at 530-nm. Cell viability was assessed by measurement of lactate dehydrogenase levels to ensure the decrease in melanin was not a result of cellular toxicity.

The subject of test [2] is mushroom tyrosinase. The test can be described thus: Mushroom tyrosinase assay. In kind it is biochemical. The following applies: for Tyrosinase activity (% of ethanol control): slope of 475-nm absorbency vs ethanol control, L-DOPA substrate; for effectiveness in skin lightening as measured by the mushroom tyrosinase assay (in words): compared with 4-ethyl resorcinol. The protocol: Mushroom tyrosinase inhibition is indicative of reduction in melanin synthesis, thereby showing skin lightening effect.
Into each well of a 96-well plate, 150 microliters of phosphate buffer (100 mM, pH 7.0), 10 microliters of L-DOPA (L-3,4-Dihydroxyphenylalanine, 10 mM), and 20 microliters of skin lightening agent (dissolved in ethanol, which is the control) were added. Following an initial measurement of background absorbency at 475-nm, 20 microliters of mushroom tyrosinase (Sigma T-7755; 6050 units/ml) was added and incubated at room temperature.
Absorbency was read at 475-nm over the following time points: 0, 2, 4, and 6.5 minutes. The data is plotted as 475-nm absorbency vs. time (minutes) and the slope of the line is calculated (ΔAbs 475 nm/min). Values are expressed as the percentage of the respective untreated ethanol control reaction.

As for `CCc1ccc(O)cc1O` [4-Ethyl Resorcinol, reference compound], the activity at 6.25 µM in test [1] amounted to 34%. Besides, the “Tyrosinase activity (% of ethanol control)” value in test [2] (0.1 micro-M) is recorded as 72.7%; in test [2] (1 micro-M), 46.3%; in test [2] (10 micro-M), 30.8%; in test [2] (100 micro-M), 20.7%.

On to `O=c1ccc2ccc(O)cc2o1` [7-Hydroxy Coumarin, reference compound], for which the “Tyrosinase activity (% of ethanol control)” value in test [2] (0.1 micro-M) came to 104%; in test [2] (1 micro-M), 100%; in test [2] (10 micro-M), 108%; in test [2] (100 micro-M), 117%.

In the case of `CC1CC(=O)Oc2cc(O)ccc21` (stereo not drawn) [B1, 7-hydroxy-3,4-dihydro-4-methylcoumarin], in test [1], the activity at 6.25 µM was found to be 75.8%. For the same molecule, the “Tyrosinase activity (% of ethanol control)” value in test [2] (1 micro-M) was found to be 94.2%; in test [2] (1.56 micro-M), 90.4%; in test [2] (12.5 micro-M) it was 70.4%; in test [2] (100 micro-M) it was 75.3%. Besides, the “effectiveness in skin lightening as measured by the mushroom tyrosinase assay (in words)” value (“effectiveness in skin lightening” for short) in test [2] is “not effective in skin lightening”.

On to `COC(=O)CC(C)c1ccc(O)cc1O` (stereo not drawn) [D1, Methyl 3-(2,4-dihydroxyphenyl)-butyrate], for which, in test [1], the activity at 6.25 µM worked out at 36.4%. Also, the “Tyrosinase activity (% of ethanol control)” value in test [2] (1 micro-M) stood at 73.1%; in test [2] (1.56 micro-M), 39.3%; in test [2] (12.5 micro-M), 35.8%; in test [2] (100 micro-M), 41.0%. Moreover, in test [2], the “effectiveness in skin lightening” value is given as “substantially as effective as 4-ethyl resorcinol”.

In the case of `CC(CC(=O)O)c1ccc(O)cc1O` (stereo not drawn) [II, 3-(2,4-dihydroxyphenyl)-butyric acid], the activity at 6.25 µM in test [1] was determined as 32.8%. Also, the “Tyrosinase activity (% of ethanol control)” value in test [2] (1 micro-M) is 73.3%; in test [2] (1.56 micro-M) it was 41.6%; in test [2] (12.5 micro-M), 28.0%; in test [2] (100 micro-M), 20.6%. Besides, the “effectiveness in skin lightening” value in test [2] was “substantially as effective as 4-ethyl resorcinol”.
